pIC50: −log10 of the molar value. Calls of active or inactive are those of the source.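 The calls were made as follows: active = toxic to mouse fibroblast host cells, with IC50 below 50 µM; inactive = the rest.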

The test system of this experiment is NIH-3T3 viability, ATP luminescence. Kind of experiment: murine fibroblast viability via ATP level – cell-based, murine fibroblasts, cytotoxicity control for Trypanosoma cruzi inhibitor project (AID 1159561). The note with it: 4 days.
As for `Cc1ccc(CNC2CCN(C[C@@H]3Cn4c(=O)ccc5ccc(=O)n3c54)CC2)cc1F`, the negative-log IC50 (pIC50) is 4.80.
Regarding `Cc1c(C(=O)NCCCCn2ccnc2)oc2c(C)cccc12`, the pIC50 is 4.49.
As to `O=C(Cn1cnc([N+](=O)[O-])n1)Nc1ccc(Cl)cc1C(=O)c1ccccc1`, the IC50 was > 50 µM (inactive).
For the molecule `Cc1cccnc1CN1CCN(CCCOc2ccc(-c3ccc(C(N)=O)cc3)cc2)CC1`, the pIC50 was 5.20.
With `C=CCOCC1Cn2nc([N+](=O)[O-])nc2O1` (configuration not stated), the IC50 is > 50 µM (inactive).
As to `COc1ccc2nccc([C@H](O)CN3CC[C@H](NC(=O)c4ccc(Br)cc4)[C@@H](O)C3)c2n1`, the IC50 was > 50 µM (inactive).
As for `O=C(C1CCCCC1)N1CCN(c2nnc(-c3ccccc3)c3ccccc23)CC1`, the IC50 was > 50 µM (inactive).
On to `CNc1cncc(C2CCCN2C(=O)Cc2ccc3ccccc3c2)n1` (configuration not stated), for which the IC50 is > 50 µM (inactive).
With `CC(=Cc1ccccc1)CN1CCC(=O)N(Cc2cccnc2)CC1`, the IC50 is > 50 µM (inactive).
On to `COc1ccccc1C=CCN1C[C@H]2CCC[C@@H](C1)C2(O)c1cccnc1` (some centres not stated), for which the pIC50 is 4.49.
On to `O=c1[nH]c(C=Cc2cccc(OCCOc3ccccc3)c2)nc(O)c1[N+](=O)[O-]`, for which the IC50 was > 50 µM (inactive).
With `CC(C)(C)C(O)(CCc1ccc(Cl)cc1)Cn1cncn1` (configuration not stated), the IC50 was > 50 µM (inactive).
In the case of `O=S(=O)(NCC(c1cccnc1)N1CCN(c2ccccc2F)CC1)c1ccc(F)cc1` (configuration not stated), the IC50 is > 50 µM (inactive).
Same read-out and setting: with `CCCn1c(NC(=O)Cc2ccc(Cl)cc2)nc2ccccc21` the figure was > 50 µM (inactive).
In the case of `Cc1ccc2c(c1)-c1onc(C(=O)N3CCCCC3c3cccnc3)c1CO2` (configuration not stated), the pIC50 is 4.70.
With `CCC(=O)Nc1ccc(C(=O)Nc2ccccc2-c2ccccc2)cc1`, the IC50 was > 50 µM (inactive).
For the molecule `COc1ccc([N+](=O)[O-])cc1NC(=O)Nc1cccc(Cl)c1`, the IC50 was > 50 µM (inactive).
For the molecule `O=C(CSc1ccc(F)cc1)N[C@@H](Cc1cnc[nH]1)C(=O)NCCc1ccccc1`, the negative logarithm of the IC50 (pIC50) is 4.89.
Turning to `CN(C(=O)Nc1ccc2c(c1)CCN(C1CCC1)CC2)c1ccc(C#N)cc1`, the pIC50 is 4.40.
As for `O=C(c1ccc(OCCCc2cnc[nH]2)cc1)C1CC1`, the pIC50 was 4.89.
As for `Cc1ccc2ccc(C(Nc3ccccn3)c3cccnc3)c(O)c2n1` (configuration not stated), the pIC50 was 5.00.
Take `O=C(Nc1cccc(F)c1)N1CCC(Oc2cccc(-c3cccnc3)c2)CC1`: the pIC50 was 4.40.
Take `O=c1[nH]cnc2c([C@@H]3O[C@H](CO)[C@@H](O)[C@H]3O)[nH]nc12`: the IC50 is > 50 µM (inactive).
In the case of `c1ccc(CCNCc2cncc3nc(-c4cnccn4)n(C4CCCCC4)c23)cc1`, the pIC50 was 5.20.
For `O=C(NCCNc1noc(-c2ccc([N+](=O)[O-])cc2)n1)c1ccc(Cl)cc1`, the IC50 is > 50 µM (inactive).
With `Cc1ccc(C)c(OC2CCN(C(=O)C(C)n3ccnc3)CC2)c1` (configuration not stated), the IC50 was > 50 µM (inactive).
For `COc1cccc(C(=O)[C@H]2C[C@@H]2CN(Cc2cccnc2)Cc2cccnc2)c1`, the pIC50 was 4.70.
For `CC(=O)Nc1nc(-c2cc(C)ccc2C)c(C)s1`, the pIC50 was 4.60.
As for `CCCc1nc2nc(N)nc(N)c2cc1CC`, the pIC50 was 4.49.
On to `CS(=O)(=O)c1cccc(CNC(=O)c2cncc(N3CCN(c4ccc(F)cc4)CC3)c2)c1`, for which the pIC50 is 4.60.
In the case of `Cc1nn(C2CCS(=O)(=O)C2)c(C)c1CN(C)C(=O)C=Cc1sc2ccccc2c1Cl` (configuration not stated), the IC50 is > 50 µM (inactive).
Turning to `CN(C)CCN(C)Cc1ccc(F)cc1NS(=O)(=O)c1ccc(Cl)c(Cl)c1`, the pIC50 was 4.80.
With `COc1ccc(-c2nc3ccncc3c(=O)n2CCOc2ccccc2)cc1`, the pIC50 was 4.49.
As to `Cc1ccc(NC(=O)C(C)n2nc([N+](=O)[O-])c(Br)c2C)cc1Cl` (configuration not stated), the pIC50 is 4.89.
Turning to `CCN(CC)S(=O)(=O)c1ccc(Cn2nc(C(=O)Nc3ccncn3)c3ccccc32)cc1`, the pIC50 is 4.40.
Turning to `O=C(Nc1ccc(Br)cn1)c1ccc(Cn2cnc([N+](=O)[O-])n2)cc1`, the IC50 was > 50 µM (inactive).
With `COc1ccc2ncc(=O)n(CCN3CCOC(CNCc4ccc(C(F)(F)F)cc4F)C3)c2n1` (configuration not stated), the pIC50 is 5.40.
`Cc1c(C#N)c([N+](=O)[O-])nn1Cc1cccc(Cl)c1Cl`: the negative logarithm of the IC50 (pIC50) was 4.40.
For `CC1=NN(C(=O)CCn2cnc([N+](=O)[O-])n2)C(O)(C(F)(F)F)C1` (configuration not stated), the IC50 was > 50 µM (inactive).
As for `O=S(=O)(NCC(c1cccnc1)N1CCN(c2ccc(F)cc2)CC1)c1cccs1` (configuration not stated), the IC50 is > 50 µM (inactive).
On to `COc1ccc(-c2ccc3nnc(-c4ccc(O)c(OC)c4)n3c2)cn1`, for which the pIC50 is 4.30.
Consider `N#Cc1cc(N2CCCC2=O)ccc1Sc1ccccc1CO`, for which the IC50 was > 50 µM (inactive).
Take `O=C(CN(c1cccc(C(F)(F)F)c1)S(=O)(=O)c1ccc(Cl)cc1)NCc1ccc(F)c(F)c1`: the pIC50 was 4.49.
For `CC(=O)Nc1ccc(-c2csc(NC(=O)c3ccc([N+](=O)[O-])s3)n2)cc1`, the pIC50 is 5.20.
`CN(Cc1ccc(C(N)=O)cc1)C(c1ccc(F)cc1)c1cccnc1` (configuration not stated): the pIC50 was 4.49.
Take `Cn1c(CN2CCN(c3ncc(C(F)(F)F)cc3Cl)CC2)nc2ccncc21`: the pIC50 was 5.00.
`CCCCn1nnnc1CSc1nc(C)cc(C)c1C#N`: the IC50 was > 50 µM (inactive).
`CC(C)N(C(=O)CN1C(=O)C(N)C(=O)N(c2ccccc2)c2ccccc21)c1ccccc1` (configuration not stated): the pIC50 was 4.70.
On to `CCCCNc1nccc(-c2c(-c3ccc(F)cc3)nn3c(N4CCOCC4)cccc23)n1`, for which the negative logarithm of the IC50 (pIC50) is 5.00.
As to `CNc1cncc(C2CCCN2C(=O)Cc2coc3cc(C)ccc23)n1` (configuration not stated), the IC50 is > 50 µM (inactive).
Consider `CS(=O)(=O)NC1CCC(Oc2cc3cnccc3cc2-c2ccsc2)CC1` (configuration not stated), for which the pIC50 is 4.80.
In the case of `OCCCNc1nc(Nc2ccncc2)nc2ccccc12`, the IC50 was > 50 µM (inactive).
For the molecule `CS(=O)(=O)c1cccc(-c2cnc(N)c3c(-c4ccc(CO)cc4)csc23)c1`, the pIC50 was 4.60.
`COc1ccc(C(C)(C)C)cc1S(=O)(=O)n1ccnc1`: the IC50 was > 50 µM (inactive).
Take `O=C(NCCc1ccccc1Cl)c1cccn1-c1cccnc1`: the pIC50 is 4.49.
On to `O=c1ccc2ccc(F)c3c2n1C[C@H]3CN1CCC(NCc2cc3ccccc3o2)CC1`, for which the pIC50 is 4.70.
For `NC(=O)c1ccc(-c2cccc(OCCN3CCN(C4CCCCC4)CC3)c2)cc1`, the pIC50 is 4.80.
For the molecule `Cc1cc2ncn(-c3ccc([N+](=O)[O-])cc3C#N)c2cc1C`, the IC50 is > 50 µM (inactive).
For `COc1ccc(C2CC(c3ccccc3Cl)=NN2C(=O)CNC(=O)C2CCC2)cc1` (configuration not stated), the pIC50 is 4.49.
Turning to `Cc1nn(C)c(Cl)c1CN(Cc1cccnc1)Cc1ccsc1`, the pIC50 is 4.70.
In the case of `Cc1c([N+](=O)[O-])c(C(=O)Nc2sc3c(c2C#N)CCC(C)C3)nn1C` (configuration not stated), the pIC50 was 4.89.
Take `CCN(Cc1ccncc1)Cc1ccc(NC(=O)c2cc(-c3ccc(F)cc3)n[nH]2)cc1`: the pIC50 was 5.00.
With `Cc1sc(C)c(C(F)(F)F)c1CNCCCNc1cc(=O)c2ccccc2[nH]1`, the pIC50 was 5.00.
Consider `O=[N+]([O-])c1cccc(Nc2cncc(-c3ccccc3CO)c2)c1`, for which the pIC50 was 4.40.
As to `c1cc(-c2ncc(-c3ccn[nH]3)s2)ccn1`, the IC50 is > 50 µM (inactive).
For the molecule `CC(Cn1ccnc1)NC(=O)C=Cc1ccc(Cl)cc1` (configuration not stated), the IC50 was > 50 µM (inactive).
The same measure, in the same setting: with `CS(=O)(=O)c1ccc(CC(=O)Nc2nc(-c3ccc(Cl)s3)cs2)cc1` the figure was > 50 µM (inactive).
Take `CN1CCN(c2nc(-c3ccc(Cl)cc3)c3c(N)n(C)nc3n2)CC1`: the pIC50 was 4.60.
`CN(Cc1nc2ccccc2s1)C(=O)C=Cc1cc2ccccc2o1`: the pIC50 is 4.49.
As for `C=CCn1nc([N+](=O)[O-])nc1Oc1ccc(Cl)cc1Cl`, the pIC50 is 4.30.
As for `Cc1[nH]c2ccccc2c(=O)c1Cc1c(C)[nH]c2ccccc2c1=O`, the IC50 was > 50 µM (inactive).
As to `COc1ccc(C(=O)Nc2cc(C(F)(F)F)ccc2N2CCOCC2)c(OC)c1`, the pIC50 was 4.49.
Still for that read-out and setting: with `CN(Cc1cc2ccccc2s1)c1ncc2c(N)nc(N)nc2n1` the figure was 4.60; with `CN(C)c1ccc(-c2cc3nccnc3c(OC[C@H]3CCCNC3)n2)cn1`, 4.80.
Take `Cc1cc(C)nc(N2CCC(N(Cc3cccnc3)C(=O)c3cccc(C#N)c3)CC2)n1`: the pIC50 was 5.10.
Still for that read-out and setting: with `CCC(c1ccc(F)cc1)n1cncc1-c1cnn(C)c1` (configuration not stated) the figure was 4.60.
Consider `O=C(NCCc1cccnc1)c1ccc(-c2ccccc2F)o1`, for which the pIC50 is 4.40.
For the molecule `NC(=O)c1ccccc1Nc1nc(NC2CCCCC2)nc2[nH]ccc12`, the pIC50 is 4.60.
Regarding `Cc1cccc(N2CCCN(Cc3c[nH]c4ccccc34)CC2)n1`, the negative logarithm of the IC50 (pIC50) is 4.60.
For `CC(C(=O)Nc1ccccc1F)N(C)CC(=O)Nc1cccc2ccccc12` (configuration not stated), the pIC50 was 4.89.
For `COc1ccc(NS(=O)(=O)c2cccc(NC(=O)c3cc(F)cc(F)c3)c2)cc1`, the pIC50 is 4.60.
As to `CCC1Oc2cc(S(=O)(=O)N(C)CC(=O)N3CCc4ccccc4C3)c(C)cc2NC1=O` (configuration not stated), the IC50 is > 50 µM (inactive).
`Clc1ccc(Sc2cnccc2N2CCOCC2)cc1`: the IC50 is > 50 µM (inactive).
`COc1ccc(S(=O)(=O)NC(C)C)cc1Nc1ncc(-c2cccc(F)c2)cn1`: the pIC50 was 5.30.
As for `CNc1cc(C)nc(C2CN(C(=O)c3n[nH]c4ccccc34)CCO2)c1` (configuration not stated), the IC50 was > 50 µM (inactive).
Turning to `Clc1ccc(OCCN2CCCCC2c2cccnc2)c(Cl)c1` (configuration not stated), the pIC50 was 4.60.
Consider `CC(Cn1ccnc1)NC(=O)C1CC1c1cccc(Cl)c1Cl` (configuration not stated), for which the IC50 was > 50 µM (inactive).
`COc1ccc(C(=O)N2CCC(Nc3cccnc3)C2)c(OC)n1` (configuration not stated): the IC50 is > 50 µM (inactive).
Take `O=C1CN(C2CCCc3c(OCc4ccncc4)cccc32)C(=O)N1C1CCCCC1` (configuration not stated): the IC50 is > 50 µM (inactive).
As for `O=S(=O)(c1ccccc1C(F)(F)F)N1CCN(Cc2ccc(-n3ccnc3)cc2)CC1`, the IC50 was > 50 µM (inactive).
With `CN(C)Cc1ccc(N2CCC(NS(=O)(=O)c3ccc(Cl)cc3)CC2)cc1`, the pIC50 was 4.80.
In the case of `O=C(NCCc1nc(-c2ccc(F)c(F)c2)n[nH]1)C1CCCCC1`, the IC50 is > 50 µM (inactive).
